We go through six compounds from patent US12139520B2 (priority 2020, dated 2024).

One data set addresses T1, hAMY3 receptor (Homo sapiens, UniProt O60896+P30988).
T1 sequence (P30988 25-474): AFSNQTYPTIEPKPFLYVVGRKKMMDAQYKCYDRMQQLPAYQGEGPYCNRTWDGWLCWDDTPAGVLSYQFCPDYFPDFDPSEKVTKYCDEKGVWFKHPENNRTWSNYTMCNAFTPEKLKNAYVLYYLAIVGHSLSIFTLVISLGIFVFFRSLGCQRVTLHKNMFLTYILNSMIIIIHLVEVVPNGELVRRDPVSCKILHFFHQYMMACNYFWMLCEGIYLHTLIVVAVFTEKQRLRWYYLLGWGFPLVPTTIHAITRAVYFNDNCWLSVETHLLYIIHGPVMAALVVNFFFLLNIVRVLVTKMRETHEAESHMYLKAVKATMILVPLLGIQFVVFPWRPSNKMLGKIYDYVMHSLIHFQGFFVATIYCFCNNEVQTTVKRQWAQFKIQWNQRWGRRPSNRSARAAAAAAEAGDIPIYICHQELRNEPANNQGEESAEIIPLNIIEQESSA
T1 sequence (O60896 24-148 partner): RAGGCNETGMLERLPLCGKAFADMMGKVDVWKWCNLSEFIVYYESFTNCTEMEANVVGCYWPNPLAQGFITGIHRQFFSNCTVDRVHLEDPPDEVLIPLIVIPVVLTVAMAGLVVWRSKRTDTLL
Briefly: cAMP assay for in vitro receptor activation, hAMY3-R. It counts as cell-based. The note with it: cAMP assay, hAMY3 receptor; read-out: hAMY3R EC50. Summed up: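 Monoclonal cell line stably overexpressing human AMY3 receptor, 2000 cells/well in DPBS with 0.05% casein and 0.5 mM IBMX. Stimulated 30 min at room temperature with graded compound doses, human amylin as positive control. cAMP accumulation read by TR-FRET after one hour.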

Data set [1] can be described thus: Physical stability of peptide analogues (Thioflavin T fibrillation). It counts as physicochemical. The conditions noted are these: maximum ThT signal normalized between hAMY maximum and buffer background; 40° C., shaking, four days; pH 7 per table title. In outline:
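ThT fluorescence (450 nm excitation, 480 nm emission; 4 μM dye) was read every 10 min over four days at 40° C under 700 rpm shaking stress, after 1 h in pH 4 acetate or pH 7 phosphate (50 mM). Peak smoothed signal expressed as percent, scaled between buffer background and hAMY maximum.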

Each structure is given as a SMILES string. pEC50: −log10 of the molar value. Bridge positions count the residues as written; N and C are the ends. Square brackets hold non-standard residues; d marks the D form. Peptide text beside a SMILES is read from it. Hyp = O=C(O)[C@@H]1C[C@@H](O)CN1

Consider `CC[C@H](C)[C@H](NC(=O)[C@H](CCC(N)=O)NC(=O)[C@H](Cc1c[nH]cn1)NC(=O)[C@H](C)NC(=O)[C@H](CC(C)C)NC(=O)[C@H](CCCNC(=N)N)NC(=O)[C@H](CCC(N)=O)NC(=O)[C@@H](NC(=O)[C@@H](NC(=O)[C@@H]1CSSC[C@H](NC(=O)CN)C(=O)N[C@@H](CCCNC(=N)N)C(=O)N[C@@H]([C@@H](C)O)C(=O)NCC(=O)N[C@@H]([C@@H](C)O)C(=O)N1)[C@@H](C)O)C(C)C)C(=O)N[C@@H](Cc1ccc(O)cc1)C(=O)N[C@@H](CCC(N)=O)C(=O)N[C@@H](Cc1ccccc1)C(=O)N[C@H](C(=O)N[C@@H](CC(=O)O)C(=O)N[C@@H](CCCCN)C(=O)N[C@@H](CC(=O)O)C(=O)N[C@@H](CCCCN)C(=O)N[C@@H](CC(=O)O)C(=O)N[C@@H](CC(N)=O)C(=O)N[C@H](C(=O)N[C@@H](C)C(=O)N1CCC[C@H]1C(=O)N[C@@H](CCCNC(=N)N)C(=O)N[C@H](C(=O)N[C@@H](CC(N)=O)C(=O)N[C@H](C(=O)N[C@@H](CO)C(=O)N1CCC[C@H]1C(=O)N[C@@H](CC(N)=O)C(=O)NCC(=O)N1C[C@H](O)C[C@H]1C(N)=O)C(C)C)[C@@H](C)O)C(C)C)[C@@H](C)O` [compound 163] (H-GCRTGTCTVQRLAHQIYQFTDKDKDNVAPRTNVSPNG[Hyp]-NH2; disulfide 2-7; N-terminus assumed), for which the pEC50 at hAMY3 receptor was 10.28. Also, the “Max ThT signal (%)” value in data set [1] is given as 2.000%.

On to `CC[C@H](C)[C@H](NC(=O)[C@H](CCC(N)=O)NC(=O)[C@H](Cc1c[nH]cn1)NC(=O)[C@H](C)NC(=O)[C@H](CC(C)C)NC(=O)[C@H](CCCNC(=N)N)NC(=O)[C@H](CCC(N)=O)NC(=O)[C@@H](NC(=O)[C@@H](NC(=O)[C@@H]1CSSC[C@H](NC(=O)CN)C(=O)N[C@@H](CCCNC(=N)N)C(=O)N[C@@H](Cc2ccccc2)C(=O)NCC(=O)N[C@@H]([C@@H](C)O)C(=O)N1)[C@@H](C)O)C(C)C)C(=O)N[C@@H](Cc1ccc(O)cc1)C(=O)N[C@@H](CCC(N)=O)C(=O)N[C@@H](Cc1ccccc1)C(=O)N[C@H](C(=O)N[C@@H](CC(=O)O)C(=O)N[C@@H](CCCCN)C(=O)N[C@@H](CC(=O)O)C(=O)N[C@@H](CCCCN)C(=O)N[C@@H](CC(=O)O)C(=O)N[C@@H](CC(N)=O)C(=O)N[C@H](C(=O)N[C@@H](C)C(=O)N1CCC[C@H]1C(=O)N[C@@H](CCCNC(=N)N)C(=O)N[C@@H](CO)C(=O)N[C@@H](CCCCN)C(=O)N[C@H](C(=O)N[C@@H](CO)C(=O)N1CCC[C@H]1C(=O)N[C@@H](CCC(N)=O)C(=O)NCC(=O)N1C[C@H](O)C[C@H]1C(N)=O)C(C)C)C(C)C)[C@@H](C)O` [compound 167] (H-GCRFGTCTVQRLAHQIYQFTDKDKDNVAPRSKVSPQG[Hyp]-NH2; disulfide 2-7; N-terminus assumed), for which the pEC50 at hAMY3 receptor was 10.25. Also, the “Max ThT signal (%)” value in data set [1] came to 6.600%.

Consider `CC[C@H](C)[C@H](NC(=O)[C@H](CCC(N)=O)NC(=O)[C@H](Cc1c[nH]cn1)NC(=O)[C@H](C)NC(=O)[C@H](CC(C)C)NC(=O)[C@H](CCCNC(=N)N)NC(=O)[C@H](CCC(N)=O)NC(=O)[C@@H](NC(=O)[C@@H](NC(=O)[C@@H]1CSSC[C@H](NC(=O)CN)C(=O)N[C@@H](CCCNC(=N)N)C(=O)N[C@@H](Cc2ccccc2)C(=O)NCC(=O)N[C@@H]([C@@H](C)O)C(=O)N1)[C@@H](C)O)C(C)C)C(=O)N[C@@H](Cc1ccc(O)cc1)C(=O)N[C@@H](CCC(N)=O)C(=O)N[C@@H](Cc1ccccc1)C(=O)N[C@H](C(=O)N[C@@H](CC(=O)O)C(=O)N[C@@H](CCCCN)C(=O)N[C@@H](CC(=O)O)C(=O)N[C@@H](CCCCN)C(=O)N[C@@H](CC(=O)O)C(=O)N[C@@H](CC(N)=O)C(=O)N[C@H](C(=O)N[C@@H](C)C(=O)N1CCC[C@H]1C(=O)N[C@@H](CCCNC(=N)N)C(=O)N[C@@H](CO)C(=O)N[C@@H](CC(N)=O)C(=O)N[C@H](C(=O)NCC(=O)N1CCC[C@H]1C(=O)N[C@@H](CCC(N)=O)C(=O)NCC(=O)N1C[C@H](O)C[C@H]1C(N)=O)C(C)C)C(C)C)[C@@H](C)O` [compound 135] (H-GCRFGTCTVQRLAHQIYQFTDKDKDNVAPRSNVGPQG[Hyp]-NH2; disulfide 2-7; N-terminus assumed), for which the pEC50 on hAMY3 receptor is 10.48. The “Max ThT signal (%)” value in data set [1] is recorded as 3.300%.

Consider `CC[C@H](C)[C@H](NC(=O)[C@H](CCC(N)=O)NC(=O)[C@H](Cc1c[nH]cn1)NC(=O)[C@H](C)NC(=O)[C@H](CC(C)C)NC(=O)[C@H](Cc1c[nH]c2ccccc12)NC(=O)[C@H](CCC(N)=O)NC(=O)[C@@H](NC(=O)[C@@H](NC(=O)[C@@H]1CSSC[C@H](NC(=O)CN)C(=O)N[C@@H](CCCNC(=N)N)C(=O)N[C@@H](Cc2ccccc2)C(=O)NCC(=O)N[C@@H]([C@@H](C)O)C(=O)N1)[C@@H](C)O)C(C)C)C(=O)N[C@@H](Cc1ccc(O)cc1)C(=O)N[C@@H](CCC(N)=O)C(=O)N[C@@H](Cc1ccccc1)C(=O)N[C@H](C(=O)N[C@@H](CC(=O)O)C(=O)N[C@@H](CCCCN)C(=O)N[C@@H](CC(=O)O)C(=O)N[C@@H](CCCCN)C(=O)N[C@@H](CC(=O)O)C(=O)N[C@@H](CC(N)=O)C(=O)N[C@H](C(=O)N[C@@H](C)C(=O)N1CCC[C@H]1C(=O)N[C@@H](CCCNC(=N)N)C(=O)N[C@H](C(=O)N[C@@H](CCCCN)C(=O)N[C@H](C(=O)NCC(=O)N1CCC[C@H]1C(=O)N[C@@H](CCC(N)=O)C(=O)NCC(=O)N1C[C@H](O)C[C@H]1C(N)=O)C(C)C)[C@@H](C)O)C(C)C)[C@@H](C)O` [compound 322] (H-GCRFGTCTVQWLAHQIYQFTDKDKDNVAPRTKVGPQG[Hyp]-NH2; disulfide 2-7; N-terminus assumed), for which, on hAMY3 receptor, the pEC50 was 10.85. Besides, the “Max ThT signal (%)” value in data set [1] worked out at 18.400%.

In the case of `CC[C@H](C)[C@H](NC(=O)[C@H](CCC(N)=O)NC(=O)[C@H](Cc1c[nH]cn1)NC(=O)[C@H](C)NC(=O)[C@H](CC(C)C)NC(=O)[C@H](CCCNC(=N)N)NC(=O)[C@H](CCC(N)=O)NC(=O)[C@@H](NC(=O)[C@@H](NC(=O)[C@@H]1CSSC[C@H](NC(=O)CN)C(=O)N[C@@H](CCCNC(=N)N)C(=O)N[C@@H](Cc2ccccc2)C(=O)NCC(=O)N[C@@H]([C@@H](C)O)C(=O)N1)[C@@H](C)O)C(C)C)C(=O)N[C@@H](Cc1ccc(O)cc1)C(=O)N[C@@H](CCC(N)=O)C(=O)N[C@@H](Cc1ccccc1)C(=O)N[C@H](C(=O)N[C@@H](CC(=O)O)C(=O)N[C@@H](CCCCN)C(=O)N[C@@H](CC(=O)O)C(=O)N[C@@H](CCCCN)C(=O)N[C@@H](CC(=O)O)C(=O)N[C@@H](CC(N)=O)C(=O)N[C@H](C(=O)N[C@@H](C)C(=O)N1CCC[C@H]1C(=O)N[C@@H](CCCNC(=N)N)C(=O)N[C@H](C(=O)N[C@@H](CCCCN)C(=O)N[C@H](C(=O)NCC(=O)N1CCC[C@H]1C(=O)N[C@@H](CCC(N)=O)C(=O)NCC(=O)N1C[C@H](O)C[C@H]1C(N)=O)C(C)C)[C@@H](C)O)C(C)C)[C@@H](C)O` [compound 45] (H-GCRFGTCTVQRLAHQIYQFTDKDKDNVAPRTKVGPQG[Hyp]-NH2; disulfide 2-7; N-terminus assumed), the pEC50 at hAMY3 receptor was 10.96. Further, the “Max ThT signal (%)” value in data set [1] is 3.000%.

Regarding `CC[C@H](C)[C@H](NC(=O)[C@H](CCCCN)NC(=O)[C@@H](NC(=O)[C@H](CCCNC(=N)N)NC(=O)[C@@H]1CCCN1C(=O)[C@H](C)NC(=O)[C@@H](NC(=O)[C@H](CC(N)=O)NC(=O)[C@H](CC(=O)O)NC(=O)[C@H](CCCCN)NC(=O)[C@H](CC(=O)O)NC(=O)[C@H](CCCCN)NC(=O)[C@H](CC(=O)O)NC(=O)[C@@H](NC(=O)[C@H](Cc1ccccc1)NC(=O)[C@H](CCC(N)=O)NC(=O)[C@H](Cc1ccc(O)cc1)NC(=O)[C@@H](NC(=O)[C@H](CCC(N)=O)NC(=O)[C@H](Cc1c[nH]cn1)NC(=O)[C@H](C)NC(=O)[C@H](CC(C)C)NC(=O)[C@H](CCCNC(=N)N)NC(=O)[C@H](CCC(N)=O)NC(=O)[C@@H](NC(=O)[C@@H](NC(=O)[C@@H]1CSSC[C@H](NC(=O)CN)C(=O)N[C@@H](CCCNC(=N)N)C(=O)N[C@@H](Cc2ccccc2)C(=O)NCC(=O)N[C@@H]([C@@H](C)O)C(=O)N1)[C@@H](C)O)C(C)C)[C@@H](C)CC)[C@@H](C)O)C(C)C)[C@@H](C)O)C(=O)NCC(=O)N1CCC[C@H]1C(=O)N[C@@H](CCC(N)=O)C(=O)NCC(=O)N[C@@H](Cc1ccc(O)cc1)C(N)=O` [compound 391] (H-GCRFGTCTVQRLAHQIYQFTDKDKDNVAPRTKIGPQGY-NH2; disulfide 2-7; N-terminus assumed), the pEC50 on hAMY3 receptor was 10.17. Besides, in data set [1], the “Max ThT signal (%)” value stood at 3.700%.
